Values quoted from earlier work, collected in patent publication US12208061B2 (EXORAO LIFE SCIENCE S.R.L., priority 2019, dated 2025).
Read-outs that look alike come from different tables or passages of the source.

How the values were obtained:
[1] = system: gram-negative aerobic pathogens including Pseudomonas aeruginosa; details: in vitro
[2] = solution for intravenous infusion
[3] = system: gram-positive bacteria or anaerobes; details: against gram-positive bacteria or anaerobes

C[C@H]1[C@H](NC(=O)/C(=N\OC(C)(C)C(=O)O)c2csc(N)n2)C(=O)N1S(=O)(=O)O [Aztreonam, (Z)-2-[[[(2-amino-4-thiazolyl)[[(2S,3S)-2-methyl-4-oxo-1-sulfo-3-azetidinyl]carbamoyl]methylene]amino]oxy]-2-methylpropionic acid]
pH range over which antimicrobial activity is maintained [1]: 6 to 8
time within which reconstituted solution should be used ([2]; controlled room temperature): ≤ 48 h
time within which reconstituted solution should be used ([2]; refrigerated at 2° C. to 8° C.): within seven days
antimicrobial activity [3]: no useful activity
